The values below are quoted from earlier work in patent publication US8481060B2, “Melt-coated pharmaceutical composition with fast release” (Losan Pharma GmbH, priority 2008, dated 2013).

For the data set the following is noted: taste-masking compound (excipient).
Turning to `CCCCCCCCCCCCCCCC(=O)O` [palmitinic acid], the HLB was −5.
Regarding `CCCCCCCCCCCCCCCCCCCC(=O)O` [arachinic acid], the HLB is recorded as −7.
As for `CCCCCCCCCCCCCCCCC(=O)O` [margaric acid], the HLB is listed as −6.
As to `CCCCCCCCCCCCCCCCCCCCCC(=O)O` [behenic acid], the HLB is −8.
`CCCCCCCCCCCCCCCCCCC(=O)O` [nonadecane acid]: the HLB is on record as −6.
With `CCCCCCCCCCCCCCCCCC(=O)O` [stearic acid], the HLB is listed as −6.
